Test results reported in ChEMBL document CHEMBL5724914, “Linking interpersonal differences in gut microbiota composition and drug biotransformation activity” (2024).

Experiment: (§1) The drug is tested on Z-028 corresponding to mouse gut metagenome with ENA study accession number: PRJEB37062 and ENA sample accession number: ERS12561827 for biotransformation under anaerobic condition. The drug concentrations were measured over 9 timepoints collected between 0 and 24 hours of incubation by liquid-chromatography-coupled mass spectrometry (LC–MS)
Conditions: 2 µM
Also: call rule not given here.

Bacterial Biotransformation	Structure (SMILES)
Compound NOT metabolized	CN(C)CCC=C1c2ccccc2COc2ccccc21 [DOXEPIN]
Compound NOT metabolized	C[C@]12CCC(=O)C=C1[C@@H]1C[C@@H]1[C@H]1[C@@H]3[C@@H]4C[C@@H]4[C@@]4(CCC(=O)O4)[C@@]3(C)CC[C@@H]12 [DROSPIRENONE]

Experiment: as §1, with “WLS-052” for “Z-028”, “human” for “mouse”, “ERS12561747” for “ERS12561827”
Conditions: 2 µM

Bacterial Biotransformation	Structure (SMILES)
Compound NOT metabolized	CN(C)CCC=C1c2ccccc2COc2ccccc21 [DOXEPIN]
Compound metabolized	C[C@]12CCC(=O)C=C1[C@@H]1C[C@@H]1[C@H]1[C@@H]3[C@@H]4C[C@@H]4[C@@]4(CCC(=O)O4)[C@@]3(C)CC[C@@H]12 [DROSPIRENONE]

Conditions: human gut metagenome, 24 h, 2 µM

Bacterial Biotransformation	Structure (SMILES)
Compound metabolized	CN(C)CCC=C1c2ccccc2COc2ccccc21 [DOXEPIN]
Compound metabolized	C[C@]12CCC(=O)C=C1[C@@H]1C[C@@H]1[C@H]1[C@@H]3[C@@H]4C[C@@H]4[C@@]4(CCC(=O)O4)[C@@]3(C)CC[C@@H]12 [DROSPIRENONE]

Conditions: human gut metagenome, 24 h, 2 µM
Remark: another data set of the same source

Bacterial Biotransformation	Structure (SMILES)
Compound NOT metabolized	CN(C)CCC=C1c2ccccc2COc2ccccc21 [DOXEPIN]
Compound metabolized	C[C@]12CCC(=O)C=C1[C@@H]1C[C@@H]1[C@H]1[C@@H]3[C@@H]4C[C@@H]4[C@@]4(CCC(=O)O4)[C@@]3(C)CC[C@@H]12 [DROSPIRENONE]

Conditions: human gut metagenome, 24 h, 2 µM
Remark: another data set of the same source

Bacterial Biotransformation	Structure (SMILES)
Compound NOT metabolized	CN(C)CCC=C1c2ccccc2COc2ccccc21 [DOXEPIN]
Compound metabolized	C[C@]12CCC(=O)C=C1[C@@H]1C[C@@H]1[C@H]1[C@@H]3[C@@H]4C[C@@H]4[C@@]4(CCC(=O)O4)[C@@]3(C)CC[C@@H]12 [DROSPIRENONE]

Conditions: human gut metagenome, 24 h, 2 µM
Remark: another data set of the same source

Bacterial Biotransformation	Structure (SMILES)
Compound NOT metabolized	CN(C)CCC=C1c2ccccc2COc2ccccc21 [DOXEPIN]
Compound metabolized	C[C@]12CCC(=O)C=C1[C@@H]1C[C@@H]1[C@H]1[C@@H]3[C@@H]4C[C@@H]4[C@@]4(CCC(=O)O4)[C@@]3(C)CC[C@@H]12 [DROSPIRENONE]

Experiment: as §1, with “Z-022” for “Z-028”, “ERS12561821” for “ERS12561827”
Conditions: 2 µM

Bacterial Biotransformation	Structure (SMILES)
Compound NOT metabolized	CN(C)CCC=C1c2ccccc2COc2ccccc21 [DOXEPIN]
Compound NOT metabolized	C[C@]12CCC(=O)C=C1[C@@H]1C[C@@H]1[C@H]1[C@@H]3[C@@H]4C[C@@H]4[C@@]4(CCC(=O)O4)[C@@]3(C)CC[C@@H]12 [DROSPIRENONE]

Conditions: human gut metagenome, 24 h, 2 µM
Remark: another data set of the same source

Bacterial Biotransformation	Structure (SMILES)
Compound NOT metabolized	CN(C)CCC=C1c2ccccc2COc2ccccc21 [DOXEPIN]
Compound NOT metabolized	C[C@]12CCC(=O)C=C1[C@@H]1C[C@@H]1[C@H]1[C@@H]3[C@@H]4C[C@@H]4[C@@]4(CCC(=O)O4)[C@@]3(C)CC[C@@H]12 [DROSPIRENONE]

Conditions: human gut metagenome, 24 h, 2 µM
Remark: another data set of the same source

Bacterial Biotransformation	Structure (SMILES)
Compound metabolized	CN(C)CCC=C1c2ccccc2COc2ccccc21 [DOXEPIN]
Compound metabolized	C[C@]12CCC(=O)C=C1[C@@H]1C[C@@H]1[C@H]1[C@@H]3[C@@H]4C[C@@H]4[C@@]4(CCC(=O)O4)[C@@]3(C)CC[C@@H]12 [DROSPIRENONE]

Experiment: as §1, with “Z-020” for “Z-028”, “rabbit” for “mouse”, “ERS12561819” for “ERS12561827”
Conditions: 2 µM

Bacterial Biotransformation	Structure (SMILES)
Compound NOT metabolized	CN(C)CCC=C1c2ccccc2COc2ccccc21 [DOXEPIN]
Compound metabolized	C[C@]12CCC(=O)C=C1[C@@H]1C[C@@H]1[C@H]1[C@@H]3[C@@H]4C[C@@H]4[C@@]4(CCC(=O)O4)[C@@]3(C)CC[C@@H]12 [DROSPIRENONE]

Experiment: as §1, with “WLS-240” for “Z-028”, “human” for “mouse”, “ERS12561773” for “ERS12561827”
Conditions: 2 µM

Bacterial Biotransformation	Structure (SMILES)
Compound metabolized	CN(C)CCC=C1c2ccccc2COc2ccccc21 [DOXEPIN]
Compound metabolized	C[C@]12CCC(=O)C=C1[C@@H]1C[C@@H]1[C@H]1[C@@H]3[C@@H]4C[C@@H]4[C@@]4(CCC(=O)O4)[C@@]3(C)CC[C@@H]12 [DROSPIRENONE]

Conditions: human gut metagenome, 24 h, 2 µM
Remark: another data set of the same source

Bacterial Biotransformation	Structure (SMILES)
Compound NOT metabolized	CN(C)CCC=C1c2ccccc2COc2ccccc21 [DOXEPIN]
Compound metabolized	C[C@]12CCC(=O)C=C1[C@@H]1C[C@@H]1[C@H]1[C@@H]3[C@@H]4C[C@@H]4[C@@]4(CCC(=O)O4)[C@@]3(C)CC[C@@H]12 [DROSPIRENONE]

Conditions: human gut metagenome, 24 h, 2 µM
Remark: another data set of the same source

Bacterial Biotransformation	Structure (SMILES)
Compound metabolized	CN(C)CCC=C1c2ccccc2COc2ccccc21 [DOXEPIN]
Compound NOT metabolized	C[C@]12CCC(=O)C=C1[C@@H]1C[C@@H]1[C@H]1[C@@H]3[C@@H]4C[C@@H]4[C@@]4(CCC(=O)O4)[C@@]3(C)CC[C@@H]12 [DROSPIRENONE]

Experiment: as §1, with “WLS-220” for “Z-028”, “human” for “mouse”, “ERS12561769” for “ERS12561827”
Conditions: 2 µM

Bacterial Biotransformation	Structure (SMILES)
Compound metabolized	CN(C)CCC=C1c2ccccc2COc2ccccc21 [DOXEPIN]
Compound metabolized	C[C@]12CCC(=O)C=C1[C@@H]1C[C@@H]1[C@H]1[C@@H]3[C@@H]4C[C@@H]4[C@@]4(CCC(=O)O4)[C@@]3(C)CC[C@@H]12 [DROSPIRENONE]

Conditions: human gut metagenome, 24 h, 2 µM
Remark: another data set of the same source

Bacterial Biotransformation	Structure (SMILES)
Compound NOT metabolized	CN(C)CCC=C1c2ccccc2COc2ccccc21 [DOXEPIN]
Compound metabolized	C[C@]12CCC(=O)C=C1[C@@H]1C[C@@H]1[C@H]1[C@@H]3[C@@H]4C[C@@H]4[C@@]4(CCC(=O)O4)[C@@]3(C)CC[C@@H]12 [DROSPIRENONE]

Experiment: as §1, with “Z-029” for “Z-028”, “rat” for “mouse”, “ERS12561828” for “ERS12561827”
Conditions: 2 µM

Bacterial Biotransformation	Structure (SMILES)
Compound NOT metabolized	CN(C)CCC=C1c2ccccc2COc2ccccc21 [DOXEPIN]
Compound NOT metabolized	C[C@]12CCC(=O)C=C1[C@@H]1C[C@@H]1[C@H]1[C@@H]3[C@@H]4C[C@@H]4[C@@]4(CCC(=O)O4)[C@@]3(C)CC[C@@H]12 [DROSPIRENONE]

Experiment: as §1, with “WLS-170” for “Z-028”, “human” for “mouse”, “ERS12561762” for “ERS12561827”
Conditions: 2 µM

Bacterial Biotransformation	Structure (SMILES)
Compound metabolized	CN(C)CCC=C1c2ccccc2COc2ccccc21 [DOXEPIN]
Compound metabolized	C[C@]12CCC(=O)C=C1[C@@H]1C[C@@H]1[C@H]1[C@@H]3[C@@H]4C[C@@H]4[C@@]4(CCC(=O)O4)[C@@]3(C)CC[C@@H]12 [DROSPIRENONE]

Conditions: human gut metagenome, 24 h, 2 µM
Remark: another data set of the same source

Bacterial Biotransformation	Structure (SMILES)
Compound NOT metabolized	CN(C)CCC=C1c2ccccc2COc2ccccc21 [DOXEPIN]
Compound NOT metabolized	C[C@]12CCC(=O)C=C1[C@@H]1C[C@@H]1[C@H]1[C@@H]3[C@@H]4C[C@@H]4[C@@]4(CCC(=O)O4)[C@@]3(C)CC[C@@H]12 [DROSPIRENONE]

Experiment: as §1, with “Z-007” for “Z-028”, “rat” for “mouse”, “ERS12561807” for “ERS12561827”
Conditions: 2 µM

Bacterial Biotransformation	Structure (SMILES)
Compound NOT metabolized	CN(C)CCC=C1c2ccccc2COc2ccccc21 [DOXEPIN]
Compound NOT metabolized	C[C@]12CCC(=O)C=C1[C@@H]1C[C@@H]1[C@H]1[C@@H]3[C@@H]4C[C@@H]4[C@@]4(CCC(=O)O4)[C@@]3(C)CC[C@@H]12 [DROSPIRENONE]

Experiment: as §1, with “WLS-077” for “Z-028”, “human” for “mouse”, “ERS12561750” for “ERS12561827”
Conditions: 2 µM

Bacterial Biotransformation	Structure (SMILES)
Compound NOT metabolized	CN(C)CCC=C1c2ccccc2COc2ccccc21 [DOXEPIN]
Compound metabolized	C[C@]12CCC(=O)C=C1[C@@H]1C[C@@H]1[C@H]1[C@@H]3[C@@H]4C[C@@H]4[C@@]4(CCC(=O)O4)[C@@]3(C)CC[C@@H]12 [DROSPIRENONE]
